Laboratory results: patent US9540384B2, “Pyrrolidino heterocycles” (Hoffmann-La Roche Inc., priority 2012, dated 2017)
Counter-ions that a name gives are not always drawn.

Target: human PDE10A full length (Homo sapiens (Human), UniProt Q9Y233)
Test: human PDE10A full length Scintillation Proximity Assay (SPA)
Assay type: biochemical
Conditions: PDE10A enzyme, 50 nM cGMP + 50 nM [3H]-cGMP, 20 minutes at room temperature
Protocol: The following test was carried out in order to determine the activity of the compounds of the present invention. PDE10 activity of the compounds of the present invention was determined using a Scintillation Proximity Assay (SPA)-based method similar to the one previously described (Fawcett, L. et al., Proc Natl Acad Sci USA (2000) 97(7):3702-3707).
The human PDE10A full length assay was performed in 96-well micro titer plates. The reaction mixture of 50 μl contained 20 mM HEPES pH=7.5/10 mM MgCl2/0.05 mg/ml BSA (Sigma cat. #A-7906), 50 nM cGMP (Sigma, cat. #G6129) and 50 nM [3H]-cGMP (GE Healthcare, cat. #TRK392 S.A. 13.2 Ci/mmol), 3.75 ng/well PDE10A enzyme (Enzo Life Science, Lausen, Switzerland cat #SE-534) with or without a specific test compound. A range of concentrations of the potential inhibitor was used to generate data for calculating the concentration of inhibitor resulting in 50% of the effect (e.g. IC50, the concentration of the competitor inhibiting PDE10A activity by 50%). Non-specific activity was tested without the enzyme. The reaction was initiated by the addition of the substrate solution (cGMP and [3H]-cGMP) and allowed to progress for 20 minutes at room temperature. The reaction was terminated by adding 25 μl of YSi-SPA scintillation beads (GE Healthcare, cat. #RPNQ0150) in 18 mM zinc sulphate solution (stop reagent). After 1 h under shaking, the plate was centrifuged one minute at 170 g to allow beads to settle. Afterwards, radioactive counts were measured on a Perkin Elmer TopCount Scintillation plate reader.

Chain of human PDE10A full length (Q9Y233 other isoform, or with tags, fused parts or gaps): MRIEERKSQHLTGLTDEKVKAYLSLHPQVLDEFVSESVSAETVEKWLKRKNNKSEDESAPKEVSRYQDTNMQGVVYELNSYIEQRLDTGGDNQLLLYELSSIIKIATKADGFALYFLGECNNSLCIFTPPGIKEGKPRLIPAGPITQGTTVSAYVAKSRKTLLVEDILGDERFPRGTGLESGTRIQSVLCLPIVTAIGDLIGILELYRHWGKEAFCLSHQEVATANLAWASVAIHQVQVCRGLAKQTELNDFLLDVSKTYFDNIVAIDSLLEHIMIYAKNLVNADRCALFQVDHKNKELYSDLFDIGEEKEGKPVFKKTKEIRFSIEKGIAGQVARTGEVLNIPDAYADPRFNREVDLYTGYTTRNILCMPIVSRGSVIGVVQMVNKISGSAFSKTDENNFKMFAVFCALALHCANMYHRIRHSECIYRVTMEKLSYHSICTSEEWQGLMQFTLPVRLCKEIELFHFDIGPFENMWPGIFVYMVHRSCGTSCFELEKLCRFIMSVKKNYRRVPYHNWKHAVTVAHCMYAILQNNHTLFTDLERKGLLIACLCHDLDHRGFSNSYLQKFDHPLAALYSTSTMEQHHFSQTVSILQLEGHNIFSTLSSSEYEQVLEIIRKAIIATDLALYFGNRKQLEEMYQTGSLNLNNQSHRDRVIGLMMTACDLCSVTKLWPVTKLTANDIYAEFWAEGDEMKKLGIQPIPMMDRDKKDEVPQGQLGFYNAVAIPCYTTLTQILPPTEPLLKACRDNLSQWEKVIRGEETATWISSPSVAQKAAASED

SMILES | IC50
Cc1nc2ccccc2nc1OCc1cccc(N2CCCC2)n1 [Example 9, 2-Methyl-3-((6-(pyrrolidin-1-yl)pyridin-2-yl)methoxy)quinoxaline] | 30 nM
Cc1nc2ccccc2nc1CCc1cccc(N2CCCC2)n1 [Example 11, 2-Methyl-3-[2-(6-pyrrolidin-1-yl-pyridin-2-yl)-ethyl]-quinoxaline] | 120 nM
Cc1nc2ccccc2nc1/C=C/c1cccc(N2CCCC2)n1 [Example 10, 2-Methyl-3-[(E)-2-(6-pyrrolidin-1-yl-pyridin-2-yl)-vinyl]-quinoxaline] | 90 nM
Clc1ccc2nc(OCc3cccc(N4CCCC4)n3)nc(N3CCOCC3)c2c1 [Example 13, 4-(6-Chloro-2-((6-(pyrrolidin-1-yl)pyridin-2-yl)methoxy)quinazolin-4-yl)morpholine] | 2.5 nM
COc1c(Cl)ccc2nc(CCc3cccc(N4CCCC4)n3)[nH]c(=O)c12 [Example 27, 6-Chloro-5-methoxy-2-(2-(6-(pyrrolidin-1-yl)pyridin-2-yl)ethyl)-quinazolin-4(3H)-one] | 470 nM
Cc1nc2nc(CCc3cccc(N4CCCC4)n3)[nH]c(=O)c2n1C [Example 28, 7,8-Dimethyl-2-(2-(6-(pyrrolidin-1-yl)pyridin-2-yl)ethyl)-1H-purin-6(7H)-one] | 2730 nM
Clc1ccc2nc(/C=C/c3cccc(N4CCCC4)n3)nc(N3CCOCC3)c2c1 [Example 19, (E)-4-(6-Chloro-2-(2-(6-(pyrrolidin-1-yl)pyridin-2-yl)vinyl)quinazolin-4-yl)morpholine] | 6.3 nM
Cn1cc(-c2ccccc2)nc1CCc1cccc(N2CCCC2)n1 [Example 6, 2-(2-(1-Methyl-4-phenyl-1H-imidazol-2-yl)ethyl)-6-(pyrrolidin-1-yl)pyridine] | 1840 nM
Cc1cc(N2CCCC2)nc(/C=C/c2ccc3ccccc3n2)n1 [Example 1, (E)-2-[2-(4-Methyl-6-pyrrolidin-1-yl-pyrimidin-2-yl)-vinyl]-quinoline] | 530 nM
c1cncc(-c2nc(OCc3cccc(N4CCCC4)n3)cc(N3CCOCC3)n2)c1 [Example 24, 4-(2-(Pyridin-3-yl)-6-((6-(pyrrolidin-1-yl)pyridin-2-yl)methoxy)-pyrimidin-4-yl)morpholine] | 1630 nM
O=c1[nH]c(CCc2cccc(N3CCCC3)n2)nc2cccc(Cl)c12 [Example 26, 5-Chloro-2-(2-(6-(pyrrolidin-1-yl)pyridin-2-yl)ethyl)quinazolin-4(3H)-one] | 400 nM
Cn1cc(-c2ccccc2)nc1CCc1cncc(N2CCCN2)n1 [Example 14, 2-(2-(1-Methyl-4-phenyl-1H-imidazol-2-yl)ethyl)-6-(pyrazolidin-1-yl)pyrazine hydrochloride] | 120 nM
CN(C)c1nc(/C=C/c2cccc(N3CCC(CO)C3)n2)nc2ccc(Cl)cc12 (centres unmarked) [Example 25, (E)-(1-(6-(2-(6-Chloro-4-(dimethylamino)quinazolin-2-yl)vinyl)pyridin-2-yl)pyrrolidin-3-yl)methanol] | 220 nM
COc1c(C)cnc(CCc2cccc(N3CCCC3)n2)c1C [Example 5, 4-Methoxy-3,5-dimethyl-2-(2-(6-(pyrrolidin-1-yl)pyridin-2-yl)ethyl)pyridine] | 610 nM
c1cc(COc2cc(N3CCOCC3)nc(-c3ccn[nH]3)n2)nc(N2CCCC2)c1 [Example 23, 4-[2-(2H-Pyrazol-3-yl)-6-(6-pyrrolidin-1-yl-pyridin-2-ylmethoxy)-pyrimidin-4-yl]-morpholine] | 1080 nM
Clc1ccc2nc(CCc3cccc(N4CCCC4)n3)nc(N3CCOCC3)c2c1 [Example 20, 4-(6-Chloro-2-(2-(6-(pyrrolidin-1-yl)pyridin-2-yl)ethyl)quinazolin-4-yl)morpholine] | 3.3 nM
Cn1ncc2c(N3CCOCC3)nc(OCc3cccc(N4CCCC4)n3)nc21 [Example 18, 4-(1-Methyl-6-((6-(pyrrolidin-1-yl)pyridin-2-yl)methoxy)-1H-pyrazolo-[3,4-d]pyrimidin-4-yl)morpholine] | 276 nM
Cc1nc(C)c(CCc2cccc(N3CCCC3)n2)nc1C [Example 8, 2,3,5-Trimethyl-6-(2-(6-(pyrrolidin-1-yl)pyridin-2-yl)ethyl)pyrazine] | 600 nM
COc1c(C)cnc(/C=C/c2cccc(N3CCOCC3)n2)c1C [Example 2, (E)-4-(6-(2-(4-Methoxy-3,5-dimethylpyridin-2-yl)vinyl)pyridin-2-yl)morpholine] | 8000 nM

Next, values leading:

IC50 | SMILES
480 nM | CN(C)c1nc(CCc2cccc(N3CCC(O)C3)n2)nc2ccccc12 (centres unmarked) [Example 32, 1-(6-(2-(4-(Dimethylamino)quinazolin-2-yl)ethyl)pyridin-2-yl)-pyrrolidin-3-ol]
4.5 nM | Cc1ncc(C)n2nc(CCc3cccc(N4CCCC4)n3)nc12 [Example 45, 5,8-Dimethyl-2-(2-(6-(pyrrolidin-1-yl)pyridin-2-yl)ethyl)-[1,2,4]triazolo-[1,5-a]pyrazine]
820 nM | CN(C)c1nc(/C=C/c2cccc(N3CCCC3=O)n2)nc2ccc(Cl)cc12 [Example 36, (E)-1-(6-(2-(6-chloro-4-(dimethylamino)quinazolin-2-yl)vinyl)pyridin-2-yl)pyrrolidin-2-one]
69 nM | Cc1nn2ccc(OCc3cccc(N4CCCC4)n3)nc2c1C [Example 53, 2,3-Dimethyl-5-((6-(pyrrolidin-1-yl)pyridin-2-yl)methoxy)pyrazolo[1,5-a]pyrimidine]
140 nM | Cc1ncc(C)n2nc(CCc3cncc(N4CCCC4)n3)nc12 [Example 51, 5,8-Dimethyl-2-(2-(6-(pyrrolidin-1-yl)pyrazin-2-yl)ethyl)-[1,2,4]triazolo[1,5-a]pyrazine]
630 nM | Cc1nc2ccc(CCc3cccc(N4CCCC4)n3)nn2c1C [Example 49, 2,3-Dmethyl-6-(2-(6-(pyrrolidin-1-yl)pyridin-2-yl)ethyl)imidazo[1,2-b]pyridazine]
300 nM | Cc1nn2ccc(CCc3cccc(N4CCCC4)n3)nc2c1C [Example 58, 2,3-Dimethyl-5-(2-(6-(pyrrolidin-1-yl)pyridin-2-yl)ethyl)pyrazolo[1,5-a]pyrimidine]
1050 nM | Cc1c(C(N)=O)nc2ccc(OCc3cccc(N4CCCC4)n3)nn12 [Example 56, 3-Methyl-6-((6-(pyrrolidin-1-yl)pyridin-2-yl)methoxy)imidazo[1,2-b]pyridazine-2-carboxamide]
12 nM | Cc1ncc(C)n2nc(/C=C/c3cccc(N4CCCC4)n3)nc12 [Example 43, (E)-5,8-Dimethyl-2-(2-(6-(pyrrolidin-1-yl)pyridin-2-yl)vinyl)[1,2,4]triazolo[1,5-a]pyrazine]
1680 nM | CN(C)c1cccc(CCc2nc(N(C)C)c3cc(Cl)ccc3n2)n1 [Example 42, 6-Chloro-2-(2-(6-(dimethylamino)pyridin-2-yl)ethyl)-N,N-dimethyl-quinazolin-4-amine]
200 nM | Cc1c(C(F)(F)F)nc2ccc(NCc3cccc(N4CCCC4)n3)nn12 [Example 57, 3-Methyl-N-((6-(pyrrolidin-1-yl)pyridin-2-yl)methyl)-2-(trifluoromethyl)imidazo[1,2-b]pyridazin-6-amine]
18 nM | Cc1ncc(C)n2nc(/C=C/c3cncc(N4CCCC4)n3)nc12 [Example 50, (E)-5,8-Dim ethyl-2-(2-(6-(pyrrolidin-1-yl)pyrazin-2-yl)vinyl)[1,2,4]triazolo[1,5-a]pyrazine]
110 nM | Cc1cc(C)n2nc(CCc3cccc(N4CCCC4)n3)nc2n1 [Example 48, 5,7-Dimethyl-2-[2-(6-pyrrolidin-1-yl-pyridin-2-yl)-ethyl]-[1,2,4]triazolo[1,5-a]pyrimidine]
2300 nM | CC1CCC(C)N1c1cccc(CCc2nc(N(C)C)c3ccccc3n2)n1 (centres unmarked) [Example 30, 2-(2-(6-(2,5-Dimethylpyrrolidin-1-yl)pyridin-2-yl)ethyl)-N,N-dimethylquinazolin-4-amine]
81 nM | CC1CCCN1c1cccc(CCc2nc(N(C)C)c3cc(Cl)ccc3n2)n1 (centres unmarked) [Example 38, 6-Chloro-N,N-dimethyl-2-(2-(6-(2-methylpyrrolidin-1-yl)pyridin-2-yl)ethyl)quinazolin-4-amine]
770 nM | CN(C)c1nc(CCc2cccc(N3CCC(O)C3)n2)nc2ccc(Cl)cc12 (centres unmarked) [Example 31, 1-(6-(2-(6-Chloro-4-(dimethylamino)quinazolin-2-yl)ethyl)pyridin-2-yl)pyrrolidin-3-ol]
3270 nM | Cc1cccc2c(=O)[nH]c(CCc3cccc(N4CCCC4)n3)nc12 [Example 37, 8-methyl-2-(2-(6-(pyrrolidin-1-yl)pyridin-2-yl)ethyl)quinazolin-4(3H)-one]
1630 nM | CN(C)c1nc(CCc2cccc(N3CCC(CO)C3)n2)nc2ccccc12 (centres unmarked) [Example 34, (1-(6-(2-(4-(Dimethylamino)quinazolin-2-yl)ethyl)pyridin-2-yl)pyrrolidin-3-yl)methanol]
100 nM | O=c1[nH]c(CCc2cccc(N3CCCC3)n2)nc2ccc(Cl)cc12 [Example 29, 6-Chloro-2-(2-(6-(pyrrolidin-1-yl)pyridin-2-yl)ethyl)quinazolin-4(3H)-one]
